Test results taken from patent US20230149428A1, “METHOD OF TREATING GENE THERAPY ASSOCIATED TOXICITY WITH ANTIBIOTICS” (Asklepios BioPharmaceutical, Inc., priority 2020, published 2023).

How the values were obtained:
[1] = tested on: liver transaminases AST and ALT; test: Liver transaminases AST/ALT after rAAV-Luc, tapering prednisone and tetracycline (Example 3); assay type: in vivo, piglets; details: tetracycline 5-50 mg/kg/day, alone or with tapering prednisone from 25 mg/kg
Protocol: The effect of antibiotic treatment on rAAV particle-induced toxicity is examined by measuring levels of endogenous cytokines and liver transaminases e.g., AST and ALT in animals injected with rAAV-Luc particles operably encoding luciferase nucleic acid.
Female piglets (n=5) are pretreated with 25 mg/kg/day prednisolone 24 hours prior to rAAV8-luc (2×10^12 particles of rAAV-Luc particles) administration and then continued for 4 weeks. Then each week the prednisone is tapered by 5 mg/kg until no prednisone and continued for 15 weeks post AAV administration (2×10^12 particles per piglet). Tetracycline is then administered at 15 mg/kg/day for 16-24 weeks. Small amounts of blood are collected aseptically obtained through the jugular vein at 2 hrs, 4 hrs, 1 day, 3 days, 10 days, 21 days, 4 weeks, 8 weeks, 15 weeks, 24 weeks post-rAAV-Luc treatment, post-rAAV-Luc treatment, and serum is isolated.

[2] = tested on: liver enzymes AST and ALT; test: Liver transaminases AST/ALT after rAAV-Luc, tetracycline pretreatment (Example 2); assay type: in vivo, piglets; details: 25 mg/kg/day tetracycline i.v. 4 hours prior to 2×10^12 particles rAAV-Luc
Protocol: (§1) The effect of antibiotic pretreatment on the rAAV particle-induced toxicity e.g., inflammatory response and liver enzyme levels (e.g., toxicity) is examined by measuring levels of endogenous cytokines and liver enzymes AST and ALT in animals injected with rAAV8-Luc particles operably encoding luciferase nucleic acid.
(§2) Female piglets (n=5) are injected intravenously with either PBS alone (antibiotic control) or 25 mg/kg/day tetracycline in PBS 4 hours prior to intravenous administration of PBS alone (viral control) or 2×10^12 particles of rAAV-Luc vector. Small amounts of blood are collected aseptically obtained through the jugular vein at 30 minutes, 60 minutes, 90 minutes, 120 minutes, 1 day, 3 days, 10 days, 21 days, 28 days, 42 days, 60 days post-rAAV-Luc treatment, and serum is isolated. The serum is then analyzed for an inflammatory cytokine profile using the BD™ Cytometric Bead Array Mouse Inflammation Kit (BD™ CBA Mouse Inflammation Kit, BD Biosciences), specifically measuring levels of IL-2, IL-6, IL-7, IL-10, MCP-I, IFNγ, IP-10 and MIG. Liver transaminases e.g., AST and ALT are also measured at the above mentioned timepoints.

[3] = tested on: IL-2, IL-6, IL-7, IL-10, MCP-I, IFNγ, IP-10 and MIG; test: Serum inflammatory cytokine profile after rAAV-Luc, tetracycline pretreatment (Example 2); assay type: in vivo, piglets
Protocol: as §1, §2

[4] = tested on: IL-8 levels and neutrophil accumulation and activation; details: refractory asthma patients; Simpson et al. 2008; cited from earlier work
[5] = tested on: Th1- and Th2-related chemokines; details: upon stimulation; Kuo et al. 2019; cited from earlier work

## CN(C)[C@@H]1C(O)=C(C(N)=O)C(=O)[C@@]2(O)C(O)=C3C(=O)c4c(O)cccc4[C@@](C)(O)[C@H]3C[C@@H]12 [tetracycline, Tetracycline]
[1]
  AST/ALT levels vs control piglets: decreased significantly
[2]
  AST/ALT ratio with time: less than 1
[3]; 25 mg/kg/day tetracycline i.v. 4 hours prior to 2×10^12 particles rAAV-Luc i.v.
  inflammatory response (cytokine levels) resulting from rAAV-Luc vs antibiotic control: significantly reduce
[3]; 25 mg/kg/day tetracycline i.v., no vector
  inflammatory response, tetracycline followed by PBS alone: no inflammatory response

## CC[C@H]1OC(=O)[C@H](C)[C@@H](O[C@H]2C[C@@](C)(OC)[C@@H](O)[C@H](C)O2)[C@H](C)[C@@H](O[C@@H]2O[C@H](C)C[C@H](N(C)C)[C@H]2O)[C@](C)(OC)C[C@@H](C)C(=O)[C@H](C)[C@@H](O)[C@]1(C)O [clarithromycin, Clarithromycin]
[4]
  effect on IL-8 levels and neutrophil accumulation and activation: modulate IL-8 levels and Neutophil accumulation and activation

## CC[C@H]1OC(=O)[C@H](C)[C@@H](O[C@H]2C[C@@](C)(OC)[C@@H](O)[C@H](C)O2)[C@H](C)[C@@H](O[C@@H]2O[C@H](C)C[C@H](N(C)C)[C@H]2O)[C@](C)(O)C[C@@H](C)CN(C)[C@H](C)[C@@H](O)[C@]1(C)O [Azithromycin]
[5]
  effect on Th1- and Th2-related chemokines: suppress Th1- and Th2-related chemokines
